Assays:
[1] = system: leukocytes in human whole blood; test: In vitro whole blood assay of leukocyte activation; assay type: cell-based; settings: for CD11b: n = 3; for Lactoferrin: n = 4; for Elastase: n = 5
Experimental: Heparinized human whole blood was added to tubes with or without lipopolysaccharide (LPS) (10 μg/mL) or formyl-Methionyl-Leucyl-Phenylalanine (fMLF, 50 nM). […] The release of IL-6, IL-8, or IL-10 was measured using commercially available ELISA kits from R&D Systems. The release of elastase was measured using a commercially available ELISA kit from Bender MedSystems. The release of lactoferrin was measured using a commercially available ELISA kit from EMD Chemicals. […] Samples were incubated for various times at 37° C. and 5% CO2. CD11b activation was measured using an FITC-conjugated mouse anti-human antibody (AbD Serotech) and evaluated on an Accuri C6 flow cytometer.

[2] = system: leukocytes in porcine blood; test: Microscopic flow chamber: leukocyte interaction with polysulfone membrane; assay type: cell-based
From the text: A custom microscopic flow chamber system was set up to enable microscopic analysis of leukocyte interaction with the SCD membrane. The flow chamber consisted of a polycarbonate housing with an inlet and outlet for perfusion. A polysulfone membrane was affixed to the polycarbonate block with a gasket which directed shear flow. The thickness of the gasket (100 μm) along with the length (2 cm) and the width of the channel (1.5 mm) determined the volume of the flow chamber. Microscopic imaging was accomplished through an optical window made up of a cover glass affixed to the bottom of the polycarbonate block. Either isolated blood or purified leukocytes were used for this study.
Isolated blood was prone to activation from excessive handling. […] Blood passed through the flow chamber at a rate of 20 μL/min with calculated shear forces between 1-10 dynes/cm^2. […]
Microscopic analysis of cell capture events was accomplished using either a Zeiss Axiovert 200M or Axio-Observer epifluorescence microscope equipped with a microscope stage-top incubator to control environmental temperature and CO2 content. Fluorescence images were acquired with either a Zeiss MRm3 or an Icc1 camera at a frequency of 1 frame/second for 5 minutes, for analysis of leukocyte/membrane interaction, and at 1 frame/minute for 1 hour sequences, for analysis of long term leukocyte attachment. […]

Q: For `O=C(O)CC(O)(CC(=O)O)C(=O)O` [Citrate], which CD11b ([1]; Baseline) is on record?
A: 7.32 ± 0.47 MFI × 10^3

Q: And the Lactoferrin ([1]; Baseline)?
A: 1.67 ± 0.29 mg/mL

Q: What about the Elastase ([1]; Baseline) of the same compound?
A: 0.94 ± 0.14 mg/mL

Q: And the CD11b ([1]; Stimulated (LPS, fMLF))?
A: 28.72 ± 2.95 MFI × 10^3

Q: And the Lactoferrin ([1]; Stimulated (LPS, fMLF))?
A: 3.43 ± 0.18 mg/mL

Q: And the Elastase ([1]; Stimulated (LPS, fMLF))?
A: 0.91 ± 0.28 mg/mL

Q: What about the iCa levels ([1]; citrate treated samples (1.25 mM nontreated)) of the same compound?
A: < 0.25 mM

Q: What about the “leukocyte attachment to polysulfone membranes during shear flow” value ([2]; LPS activated, low ionized calcium flow chambers) of the same compound?
A: statistically significant decrease

Q: And the “blood iCa level” value ([2]; after addition of citrate (from 1.32±0.05))?
A: 0.32 ± 0.05 mmol/L

Source: patent US10722637B2, “Cartridge and method for increasing myocardial function” (SeaStar Medical, Inc., priority 2012, dated 2020)
